According to ChEMBL document CHEMBL1201862, “PubChem BioAssay data set” (2004):
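These data come from cells grown in 96-well plates and exposed to compound for 48 hours at five concentrations. GI50 = concentration required for 50% inhibition of growth.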 Calls of active or inactive are those of the source. Cut-off read from the data, not from the text of the source: active = GI50 up to about 1.1 µM and inactive = higher.

How the values were obtained:
Test in all cases: DTP human tumour cell line panel, 48 h
OVCAR-3 = tested on: OVCAR-3
NCI-H23 = tested on: NCI-H23
DMS-114 = tested on: DMS-114
OVCAR-4 = tested on: OVCAR-4
K562 = tested on: K562
UO-31 = tested on: UO-31
SN12C = tested on: SN12C
786-0 = tested on: 786-0
HCT-116 = tested on: HCT-116
UACC-257 = tested on: UACC-257
A549 = tested on: A549
EKVX = tested on: EKVX
CCRF-CEM = tested on: CCRF-CEM
OVCAR-5 = tested on: OVCAR-5
MDA-MB-435 = tested on: MDA-MB-435
BT-549 = tested on: BT-549
MDA-N = tested on: MDA-N
SR = tested on: SR
SF-539 = tested on: SF-539
NCI/ADR-RES = tested on: NCI/ADR-RES

Structure (SMILES) | GI50 (OVCAR-3) | GI50 (NCI-H23) | GI50 (DMS-114) | GI50 (OVCAR-4) | GI50 (K562) | GI50 (UO-31) | GI50 (SN12C) | GI50 (786-0) | GI50 (HCT-116) | GI50 (UACC-257) | GI50 (A549) | GI50 (EKVX) | GI50 (CCRF-CEM) | GI50 (OVCAR-5) | GI50 (MDA-MB-435) | GI50 (BT-549) | GI50 (MDA-N) | GI50 (SR) | GI50 (SF-539) | GI50 (NCI/ADR-RES)
O=C(O)C1CCC(=O)N1C(=O)C(Cl)c1ccccc1 (centres undefined) | > 100 µM (inactive) | > 100 µM (inactive) | > 100 µM (inactive) | > 100 µM (inactive) | > 100 µM (inactive) | > 100 µM (inactive) | > 100 µM (inactive) | > 100 µM (inactive) | > 100 µM (inactive) | > 100 µM (inactive) | > 100 µM (inactive) | > 100 µM (inactive) | > 100 µM (inactive) | > 100 µM (inactive) | – | – | – | – | – | –
CC(/C=N/N=C1NCCCCN1)=N\N=C1NCCCCN1 | > 100 µM (inactive) | > 100 µM (inactive) | – | > 100 µM (inactive) | 37.1 µM (inactive) | > 100 µM (inactive) | > 100 µM (inactive) | > 100 µM (inactive) | 86.3 µM (inactive) | 47.6 µM (inactive) | > 100 µM (inactive) | > 100 µM (inactive) | > 100 µM (inactive) | > 100 µM (inactive) | 47.9 µM (inactive) | > 100 µM (inactive) | 52.2 µM (inactive) | 73.3 µM (inactive) | > 100 µM (inactive) | > 100 µM (inactive)
N=C(N)Cn1cnc2ccccc21 | > 100 µM (inactive) | > 100 µM (inactive) | > 100 µM (inactive) | – | > 100 µM (inactive) | > 100 µM (inactive) | > 100 µM (inactive) | > 100 µM (inactive) | – | > 100 µM (inactive) | > 100 µM (inactive) | > 100 µM (inactive) | > 100 µM (inactive) | > 100 µM (inactive) | – | – | – | – | > 100 µM (inactive) | –
C=C(CCC(=O)N(CCc1c[nH]c2ccccc12)C(=O)c1ccccc1CSCC)C(=O)OC | > 39.5 µM (inactive) | 31.9 µM (inactive) | – | 50 µM (inactive) | 5.66 µM (inactive) | 27.7 µM (inactive) | 30.3 µM (inactive) | 50 µM (inactive) | 7.19 µM (inactive) | 35.3 µM (inactive) | 27.1 µM (inactive) | 48.2 µM (inactive) | 5.4 µM (inactive) | > 100 µM (inactive) | 22 µM (inactive) | 71.9 µM (inactive) | 38.4 µM (inactive) | > 100 µM (inactive) | > 88.5 µM (inactive) | 27.3 µM (inactive)
CCOC(=O)C1=C(N)N(c2ccccc2)/C(=C2\SC(=S)N(c3ccc(C)cc3)C2=O)S1 | 27.9 µM (inactive) | 47.4 µM (inactive) | – | 18 µM (inactive) | 36.8 µM (inactive) | 68.2 µM (inactive) | 35.8 µM (inactive) | 29.3 µM (inactive) | 63.2 µM (inactive) | 42.3 µM (inactive) | 52.1 µM (inactive) | > 100 µM (inactive) | 54.2 µM (inactive) | 61.9 µM (inactive) | > 100 µM (inactive) | 90.2 µM (inactive) | > 100 µM (inactive) | > 100 µM (inactive) | 14.8 µM (inactive) | 50.5 µM (inactive)
CCc1c(-c2ccc(OC)cc2)c(=O)oc2cc(O)ccc12 | 28.4 µM (inactive) | 49.1 µM (inactive) | – | 33.8 µM (inactive) | 29.8 µM (inactive) | 19.9 µM (inactive) | 35.9 µM (inactive) | 51.2 µM (inactive) | 36.5 µM (inactive) | 25.9 µM (inactive) | 27.3 µM (inactive) | 29.4 µM (inactive) | 27.4 µM (inactive) | > 100 µM (inactive) | 27.6 µM (inactive) | 25.1 µM (inactive) | 28.1 µM (inactive) | 16.7 µM (inactive) | 44.1 µM (inactive) | 22.1 µM (inactive)
C/C(=N\NC(=S)NC1CCCC1)c1ccccn1 | < 0.01 µM (active) | < 0.0177 µM (active) | – | 0.135 µM (active) | < 0.01 µM (active) | < 0.026 µM (active) | 0.299 µM (active) | 0.0467 µM (active) | < 0.01 µM (active) | < 0.01 µM (active) | 0.0991 µM (active) | < 0.01 µM (active) | < 0.01 µM (active) | 0.0356 µM (active) | 0.578 µM (active) | 0.472 µM (active) | 0.165 µM (active) | < 0.01 µM (active) | 1.02 µM (active) | < 0.01 µM (active)
CCCCCCOc1ccc(C(=O)NO)cc1 | 6.03 µM (inactive) | 7.03 µM (inactive) | – | 5.74 µM (inactive) | 5.22 µM (inactive) | 6.08 µM (inactive) | 10.2 µM (inactive) | 3.68 µM (inactive) | 8.53 µM (inactive) | 22.8 µM (inactive) | 14.3 µM (inactive) | 15 µM (inactive) | 0.362 µM (active) | 11.6 µM (inactive) | 9.68 µM (inactive) | 15.8 µM (inactive) | 13.2 µM (inactive) | 1.19 µM (inactive) | 11.3 µM (inactive) | 3.08 µM (inactive)
O=c1[nH]c2nccn2c(Cl)c1Br | 19.8 µM (inactive) | 17.9 µM (inactive) | – | 18 µM (inactive) | 19.6 µM (inactive) | 60 µM (inactive) | 26.2 µM (inactive) | 86.9 µM (inactive) | 32.5 µM (inactive) | 16.4 µM (inactive) | > 100 µM (inactive) | 19.7 µM (inactive) | 20.5 µM (inactive) | 23.4 µM (inactive) | 19.8 µM (inactive) | 18.7 µM (inactive) | 20 µM (inactive) | 22.4 µM (inactive) | > 100 µM (inactive) | 22.9 µM (inactive)
CC(C)C(=O)/C=C/c1ccc(Cl)cc1Cl | 4.63 µM (inactive) | 13.7 µM (inactive) | – | 6.75 µM (inactive) | 5.37 µM (inactive) | 11.4 µM (inactive) | 10.7 µM (inactive) | 14.2 µM (inactive) | 2.65 µM (inactive) | 13.3 µM (inactive) | 14.8 µM (inactive) | 16.8 µM (inactive) | 5.09 µM (inactive) | 16.9 µM (inactive) | 2.99 µM (inactive) | 4.41 µM (inactive) | 2.96 µM (inactive) | 6.61 µM (inactive) | 18.4 µM (inactive) | 20.1 µM (inactive)
CCCCCCCCCCCCCCCCCCOC(COP(=O)(O)OCC1OC(n2cc(F)c(=O)[nH]c2=O)CC1O)COP(=O)(O)OCC1OC(n2ccc(N)nc2=O)C(O)C1O (centres undefined) | > 100 µM (inactive) | 7.98 µM (inactive) | – | 47.1 µM (inactive) | > 32.2 µM (inactive) | 9.64 µM (inactive) | 23.9 µM (inactive) | 2.82 µM (inactive) | 6.19 µM (inactive) | > 79.3 µM (inactive) | 2.81 µM (inactive) | > 100 µM (inactive) | 4.81 µM (inactive) | 66.8 µM (inactive) | 19.5 µM (inactive) | 18.5 µM (inactive) | > 95.5 µM (inactive) | 0.925 µM (active) | 0.863 µM (active) | 6.49 µM (inactive)
O=c1c2cc([N+](=O)[O-])ccc2n2n1Cc1ccccc1CC2 | > 100 µM (inactive) | > 100 µM (inactive) | – | > 100 µM (inactive) | > 100 µM (inactive) | > 100 µM (inactive) | > 100 µM (inactive) | > 100 µM (inactive) | > 100 µM (inactive) | > 100 µM (inactive) | > 100 µM (inactive) | 2.11 µM (inactive) | > 100 µM (inactive) | > 100 µM (inactive) | > 100 µM (inactive) | > 100 µM (inactive) | > 100 µM (inactive) | > 100 µM (inactive) | > 100 µM (inactive) | > 100 µM (inactive)
O=C(O)c1ccccc1C1CCCc2c1[nH]c1ccccc21 (centres undefined) | 83.4 µM (inactive) | 74.1 µM (inactive) | – | 41.3 µM (inactive) | 34.6 µM (inactive) | 58.5 µM (inactive) | > 100 µM (inactive) | > 100 µM (inactive) | 33.8 µM (inactive) | 69.7 µM (inactive) | 79.3 µM (inactive) | 20.3 µM (inactive) | 20 µM (inactive) | > 100 µM (inactive) | 31.3 µM (inactive) | 83.6 µM (inactive) | 27.6 µM (inactive) | 47 µM (inactive) | 88.7 µM (inactive) | 66.1 µM (inactive)
Cc1cc(C)c2c(=N)c3ccccc3n(CCCCCCCCn3c4ccccc4c(=N)c4c(C)cc(C)nc43)c2n1 | 1.76 µM (inactive) | 1.46 µM (inactive) | – | 0.627 µM (active) | 0.19 µM (active) | 1.46 µM (inactive) | 1.59 µM (inactive) | 0.931 µM (active) | 0.353 µM (active) | 1.75 µM (inactive) | 1.38 µM (inactive) | 1.4 µM (inactive) | 0.204 µM (active) | 1.89 µM (inactive) | 1.54 µM (inactive) | 1.85 µM (inactive) | 1.56 µM (inactive) | 0.127 µM (active) | 1.78 µM (inactive) | 1.6 µM (inactive)
CC(=O)OC(Cc1cc(C=C(C(F)(F)F)C(F)(F)F)cc(C)n1)(C(F)(F)F)C(F)(F)F | 1.36 µM (inactive) | 1.45 µM (inactive) | – | 1.72 µM (inactive) | 0.774 µM (active) | 1.64 µM (inactive) | 1.44 µM (inactive) | 0.839 µM (active) | 1.1 µM (active) | 1.74 µM (inactive) | 2.88 µM (inactive) | 2.01 µM (inactive) | 0.217 µM (active) | 2.18 µM (inactive) | 1.48 µM (inactive) | 1.77 µM (inactive) | 1.55 µM (inactive) | 0.352 µM (active) | 2.06 µM (inactive) | 2.28 µM (inactive)
